Measured values from patent publication US20080153873A1, “DIHYDROBENZOFURANYL DERIVATIVES AND METHODS OF THEIR USE” (Wyeth, priority 2006, published 2008).
Counter-ions that a name gives are not always drawn.

Biological target: T1, human hNET (Homo sapiens, UniProt P23975)
T1 construct: expressed in transfected cells; host or cells: MDCK-Net6 cells (MDCK, stably transfected)
Experiment: Functional Norepinephrine (NE) Uptake Assay in MDCK-Net6 cells
Format: cell-based
Settings: for IC50: MDCK-Net6 cells stably transfected with hNET, 3H norepinephrine uptake, 16 nM; for inhibition at 6 µM: % inhibition of NE uptake @ 6 μM, MDCK-Net6 cells, read-out: hNET IC50 (nM) (% Inhibition)
Method: MDCK-Net6 cells, stably transfected with human hNET (Pacholczyk, T., R. D. Blakely, and S. G. Amara, Nature, 1991, 350(6316): p. 350-4) were cultured in growth medium containing high glucose DMEM (Gibco, Cat. No. 11995), 10% FBS (dialyzed, heat-inactivated, US Bio-Technologies, Lot FBD1129HI) and 500 μg/ml G418 (Gibco, Cat. No. 10131). Cells were plated at 300,000 T75 flask and cells were split twice weekly.
On day 1, cells were plated at 3,000 cells/well in growth medium and maintained in a cell incubator (37° C., 5% CO2). On day 2, growth medium was replaced with 200 μl of assay buffer (25 mM HEPES; 120 mM NaCl; 5 mM KCl; 2.5 mM CaCl2; 1.2 mM MgSO4; 2 mg/ml glucose (pH 7.4, 37° C.)) containing 0.2 mg/ml ascorbic acid and 1 μM pargyline. For screening, 25 μl of compound in 4% DMSO was added directly to each well and the plate is incubated for 5 minutes at 37° C.
To initiate the norepinephrine reuptake, 16 nM (final concentration) of ^3H norepinephrine (specific activity; 40-80 Ci/mmol) in assay buffer was delivered in 25 μl aliquots to each well, and the plates were incubated for 5 minutes at 37° C. The reaction was aspirated from the plate and the cells washed with 250 μl of 50 mM Tris Buffer (4° C.). The plates were left to dry for 1 hour. The cells were lysed using 0.25 M NaOH solution then placed on a shake table and vigorously shaken for 10 minutes. After cell lysis, 100 μl of Microscint 20 (PerkinElmer; #87-051101) were added to the plates and the plates were sealed with film tape and replaced on the shake table for a minimum of 10 minutes. The plates were counted in a TopCount counter (PerkinElmer).
For screening single point determinations, each compound plate contains at least 3 control wells (maximum NE reuptake determinant) and 3 non-specific wells determined by adding 20 μM of desipramine (minimum NE reuptake determinant). Determination of active compounds are calculated using a Microsoft Excel spread sheet applying the following formula:
% inhibition=[1−((mean cpm test compound wells−mean cpm non-specific wells)/(mean cpm control wells−mean cpm non-specific wells))]×100
For IC50 determination, raw cpm values were generated in a data file from the TopCount counter. The data was organized using Microsoft Excel and transferred into PRIZM graphing and statistical program, which calculates the estimated IC50 value. Calculation of IC50 values were made using non-linear regression analysis with a sigmoidal dose response with variable slope. The statistical program used wells containing ^3H norepinephrine only as the maximal NE reuptake determinant and wells containing ^3H norepinephrine plus 20 μM desipramine as the minimal NE reuptake determinant (non-specific determinant). Estimation of the IC50 value was completed on a log scale and the line was fit between the maximal and minimal NE reuptake values.

T1 sequence (P23975 whole entry): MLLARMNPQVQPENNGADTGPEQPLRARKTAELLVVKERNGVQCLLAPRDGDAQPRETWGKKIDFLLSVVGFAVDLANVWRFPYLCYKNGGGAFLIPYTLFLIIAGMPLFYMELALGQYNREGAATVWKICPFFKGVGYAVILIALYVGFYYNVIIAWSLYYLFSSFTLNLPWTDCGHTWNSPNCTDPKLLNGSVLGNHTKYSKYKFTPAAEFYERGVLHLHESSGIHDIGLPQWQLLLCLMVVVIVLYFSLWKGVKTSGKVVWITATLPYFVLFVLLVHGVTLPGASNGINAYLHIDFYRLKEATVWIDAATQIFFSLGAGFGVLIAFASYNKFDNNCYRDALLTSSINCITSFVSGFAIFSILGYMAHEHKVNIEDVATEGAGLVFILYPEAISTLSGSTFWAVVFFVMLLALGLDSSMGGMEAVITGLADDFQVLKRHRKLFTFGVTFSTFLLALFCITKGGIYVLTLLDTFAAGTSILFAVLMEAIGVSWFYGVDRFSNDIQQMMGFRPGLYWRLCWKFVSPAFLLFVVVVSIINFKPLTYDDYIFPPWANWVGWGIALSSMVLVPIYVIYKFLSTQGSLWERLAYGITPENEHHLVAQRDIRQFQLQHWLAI

Row | SMILES | IC50 | inhibition at 6 µM
1 | CNCC1Oc2cc(F)ccc2C1n1c(=O)n(C(C)C)c2cccc(F)c21 (racemic) [Example 18, 4-Fluoro-3-{(2SR,3RS)-6-fluoro-2-[(methylamino)methyl]-2,3-dihydro-1-benzofuran-3-yl}-1-isopropyl-1,3-dihydro-2H-benzimidazol-2-one hydrochloride] | 3.8 µM | –
2 | CNC[C@@H]1Oc2cc(F)ccc2[C@H]1n1c(=O)n(C(C)C)c2cccc(F)c21 (single isomer, unassigned) [Example 19, hydrochloride] | 12.4 µM | –
3 | CNC[C@H]1Oc2cc(F)ccc2[C@@H]1n1c(=O)n(C(C)C)c2cccc(F)c21 (single isomer, unassigned) [Example 20, hydrochloride] | 1.75 µM | –
4 | CNC[C@@H]1Oc2ccccc2[C@H]1N1CC(C)(C)c2cccc(F)c21 [Example 5, 1-[(2S,3R)-3-(7-fluoro-3,3-dimethyl-2,3-dihydro-1H-indol-1-yl)-2,3-dihydro-1-benzofuran-2-yl]-N-methylmethanamine hydrochloride] | – | 63%
5 | CC(C)NC[C@@H]1Oc2ccccc2[C@H]1N1CC(C)(C)c2cccc(F)c21 [Example 6, N-{[(2S,3R)-3-(7-fluoro-3,3-dimethyl-2,3-dihydro-1H-indol-1-yl)-2,3-dihydro-1-benzofuran-2-yl]methyl}propan-2-amine hydrochloride] | – | 30%
6 | CN(C)C[C@@H]1Oc2ccccc2[C@H]1N1CC(C)(C)c2cccc(F)c21 [Example 7, 1-[(2S,3R)-3-(7-fluoro-3,3-dimethyl-2,3-dihydro-1H-indol-1-yl)-2,3-dihydro-1-benzofuran-2-yl]-N,N-dimethylmethanamine hydrochloride] | – | 37%
7 | CCNC[C@@H]1Oc2ccccc2[C@H]1N1CC(C)(C)c2cccc(F)c21 [Example 8, N-{[(2S,3R)-3-(7-fluoro-3,3-dimethyl-2,3-dihydro-1H-indol-1-yl)-2,3-dihydro-1-benzofuran-2-yl]methyl}ethanamine hydrochloride] | – | 42%
8 | CNCC1Oc2cc(F)ccc2C1N1C(=O)C(C)(C)c2ccccc21 (stereo not drawn) [Example 14, 1-{6-fluoro-2-[(methylamino)methyl]-2,3-dihydro-1-benzofuran-3-yl}-3,3-dimethyl-1,3-dihydro-2H-indol-2-one hydrochloride] | – | 54%
9 | CNCC1Oc2ccccc2C1N1C(=O)C(C)(C)c2ccccc21 (stereo not drawn) [Example 15, 3,3-dimethyl-1-{2-[(methylamino)methyl]-2,3-dihydro-1-benzofuran-3-yl}-1,3-dihydro-2H-indol-2-one hydrochloride] | 1.14 µM | –
10 | CNCC1Oc2ccccc2C1N(C)c1ccccc1 (stereo not drawn) [Example 17, N-methyl-2-[(methylamino)methyl]-N-phenyl-2,3-dihydro-1-benzofuran-3-amine hydrochloride] | 3.55 µM | –

Continued by falling IC50, values first:

Row | IC50 | inhibition at 6 µM | SMILES
11 | 1.03 µM | – | CNC[C@@H]1Oc2c(F)cccc2[C@H]1N1C(=O)C(C)(C)c2cccc(F)c21 [Example 12, 7-fluoro-1-{(2S,3R)-7-fluoro-2-[(methylamino)methyl]-2,3-dihydro-1-benzofuran-3-yl}-3,3-dimethyl-1,3-dihydro-2H-indol-2-one hydrochloride]
12 | 0.846 µM | – | CCOc1ccccc1O[C@H]1c2ccccc2O[C@@H]1CNC [Example 9, 1-[(2R,3S)-3-(2-ethoxyphenoxy)-2,3-dihydro-1-benzofuran-2-yl]-N-methylmethanamine hydrochloride]
13 | 0.811 µM | – | CNCC1Oc2ccccc2C1N1CCCc2ccccc21 (stereo not drawn) [Example 16, 1-[3-(3,4-dihydroquinolin-1(2H)-yl)-2,3-dihydro-1-benzofuran-2-yl]-N-methylmethanamine hydrochloride]
14 | 0.343 µM | – | CNC[C@H]1Oc2ccccc2[C@@H]1N1CC(C)(C)c2cc(F)ccc21 [Example 2, 1-[(2R,3S)-3-(5-fluoro-3,3-dimethyl-2,3-dihydro-1H-indol-1-yl)-2,3-dihydro-1-benzofuran-2-yl]-N-methylmethanamine hydrochloride]
15 | 0.319 µM | – | CN(C)C[C@H]1Oc2ccccc2[C@@H]1N1CC(C)(C)c2cccc(F)c21 [Example 3, 1-[(2R,3S)-3-(7-fluoro-3,3-dimethyl-2,3-dihydro-1H-indol-1-yl)-2,3-dihydro-1-benzofuran-2-yl]-N,N-dimethylmethanamine hydrochloride]
16 | 0.301 µM | 42% | CNCC1Oc2ccccc2C1n1ccc2ccccc21 (racemic) [Example 11, (+/−)-1-[3-(1H-indol-1-yl)-2,3-dihydro-1-benzofuran-2-yl]-N-methyl methanamine hydrochloride]
17 | 0.244 µM | – | CNCC1Oc2ccccc2C1N1CCc2ccccc21 (racemic) [Example 10, (+/−)-1-[3-(2,3-dihydro-1H-indol-1-yl)-2,3-dihydro-1-benzofuran-2-yl]-N-methylmethanamine hydrochloride]
18 | 0.095 µM | – | CC1(C)CN([C@H]2c3ccccc3O[C@@H]2CN)c2c(F)cccc21 [Example 4, 1-[(2R,3S)-3-(7-fluoro-3,3-dimethyl-2,3-dihydro-1H-indol-1-yl)-2,3-dihydro-1-benzofuran-2-yl]methanamine hydrochloride]
19 | 0.0885 µM | – | CNC[C@H]1Oc2ccc(F)cc2[C@@H]1N1CC(C)(C)c2cccc(F)c21 [Example 13, 1-[(2R,3S)-5-fluoro-3-(7-fluoro-3,3-dimethyl-2,3-dihydro-1H-indol-1-yl)-2,3-dihydro-1-benzofuran-2-yl]-N-methylmethanamine hydrochloride]
20 | 0.0272 µM | – | CNC[C@H]1Oc2ccccc2[C@@H]1N1CC(C)(C)c2cccc(F)c21 [Example 1, 1-[(2R,3S)-3-(7-fluoro-3,3-dimethyl-2,3-dihydro-1H-indol-1-yl)-2,3-dihydro-1-benzofuran-2-yl]-N-methylmethanamine hydrochloride]
